The text below walks through data of patent US11433075B2, “Methods of treating glioblastoma” (TriAct Therapeutics, Inc., priority 2017, dated 2022).

Where two headings read alike, the source gives them in different places.

For series [1] the following is noted: human, in vivo, iv.
Excerpt: It was a single arm, multi dose, dose escalating trial in newly diagnosed GBM patients. The total number of patients was 43, with about 5 patients per cohort. Patients who tolerated radiation (XRT) and temozolomide (TMZ) were recruited. Inclusion criteria included completion of XRT and TMZ without grade 3 or 4 toxicity and labs within acceptable range within 6 weeks of completing XRT. The end points included safety, maximum tolerated dose (MTD), and signal of activity.
The patients were separated into two study groups with the following treatment schema (also see FIG. 1).
Continuous Reassessment Method (CRM) was used to determine dose escalation. PK was drawn at cycle 1, 2, 3 and off treatment. PD via PBMCs was drawn at cycle 1, 2, 3 and off treatment. No cytochrome P450-inducing anticonvulsants. However, Gliadel was permitted.
Dosing is IV 2×/week continuous.
The subject of series [2] is GBM patients. Nature of the series: RTOG 0525 trial, 2013 (STD and DD arms). As to conditions: conversion. The series is classed as in vivo, human.
For series [3], the system named is same patient population (newly diagnosed GBM). The experiment in a line: EORTC Phase III trial, Stupp et al. 2005 (RT plus concomitant and adjuvant temozolomide). Type of series: in vivo, human. As to conditions: 2005 n = 287, conversion. The source says:
(§1) For assessing the efficacy of the treatment in terms of overall survival, the overall failure rate were estimated and compared to the failure rate of 0.6 per-person year of follow-up regarding the Phase III trial done by Stupp et al. in the same patient population treated with RT plus concomitant and adjuvant temozolomide.

Series [4] has the same test system. As to conditions: Stupp et al, 2005 (RT + temozolomide); cited from earlier work.
Series [5] deals with adult patients with newly diagnosed glioblastoma multiforme (GBM). Nature of the series: Phase II GBM trial (ABTC0703): overall survival. Type of series: in vivo, human. The procedure:
76 patients were recruited for this study.
The following treatment schema (also see FIG. 2).
RT: 60 Gy (total) TMZ: Daily 75 mg/m^2
BSI-201: once per day, twice a week (8.0 mg/kg IV q2 wk)
Rest (4 weeks) with no treatment.
Maintenance Cycles 1-6 (4 weeks)
BSI-201: once per day, twice a week (8.6 mg/kg IV q2 wk)
as §1
The primary endpoint was death due to all causes. The survival time is defined from time of histological diagnosis to death occurrence. The overall failure rate was expressed as hazard of failure per person-year of follow-up. The total patient population for this part of the study was defined as all patients who have met the eligibility criteria, not met ineligibility criteria, and signed patient informed consent.
It yield above 90% power to detect a 30% reduction in hazard rate with observed hazard ratio of 0.7 (0.42 vs. 0.6) at an alpha level of 0.1 to be significant. The overall failure rate was estimated by dividing the number of events (deaths) by the total exposure time in the study cohort along with 95% confidence intervals. Survival probability and median time of survival was calculated using Kaplan-Meier method.

In series [6] the test system is newly diagnosed GBM patients. The experiment in a line: Phase I GBM study: safety, DLT, MTD, adverse events. Type of series: in vivo, human. The procedure:
Study Group 1 Treatment Cycles 4 weeks each (N=23)
Study Group 2 Treatment Cycles 10 weeks each (N=20)
No cytochrome P450-inducing anticonvulsants. However, Gliadel was permitted.
Group 1: TMZ (150-200 mg/m^2 given 5 days/month×6 cycles)—standard dose with BSI-201 starting at 5.1 mg/kg.
Group 2: TMZ (75 mg/m^2 daily 42 days on 30 days off×3 cycles)—metronomic dose with BSI-201 starting at 5.1 mg/kg.
Using modified continual reassessment method, MTD was defined for metronomic and standard dose TMZ. 6 dose levels were tested (lowest 5.1 mg/kg-highest 9.5 mg/kg IV 2×/wk). […] The DLTs across both groups were: rash (1), hypersensitivity reaction (1), fatigue (1) and a thromboembolic event (1). […] Phase 2 dose defined as 8 mg/kg IV 2×/wk with standard TMZ and 8.6 mg/kg IV 2×/wk with metronomic TMZ.

Usually Cmax stands for the maximum level reached in the sampled fluid or tissue.

On to `NC(=O)c1ccc(I)c(N)c1` [IABM], for which the Cmax in series [1] (5.1 mg/kg) is on record as 5.7 ± 4.1 ng/mL; in series [1] (6.1 mg/kg), 7.2 ± 1.8 ng/mL; in series [1] (6.8 mg/kg), 8.4 ± 3.7 ng/mL; in series [1] (8 mg/kg) it was 10.3 ± 2.9 ng/mL; in series [1] (8.6 mg/kg), 9.7 ± 2.4 ng/mL; in series [1] (9.5 mg/kg), 13.6 ± 5.3 ng/mL.
In the case of `Cn1nnc2c(C(N)=O)ncn2c1=O` [temozolomide], in series [2] (RTOG 0525, 2013 DD arm, n = 422), the “Hazard Rate (per person year of follow-up)” value is listed as 0.558 per person year of follow-up. Besides, the “Hazard Rate (per person year of follow-up)” value in series [2] (RTOG 0525, 2013 STD arm, n = 411) is 0.501 per person year of follow-up. Moreover, the “Hazard Rate (per person year of follow-up)” value in series [3] is on record as 0.6 per person year of follow-up. Also, in series [4], the “Neutrophil Count Decreased” value is listed as 7%, the “Platelet Count Decreased” value was 12% and the “White Blood Cell Decreased” value is reported as 7%.
For `NC(=O)c1ccc(I)c([N+](=O)[O-])c1` [Iniparib, 4-iodo-3-nitrobenzamide], in series [5] (ABTC0703, n = 29), the “Median Overall Survival, mOS, MGMT methylated” value was 27 (n = 29) Months. In addition, the “Median Overall Survival, mOS, MGMT unmethylated” value in series [5] (ABTC0703, n = 37) was 15.8 (n = 37) Months. The “Hazard Rate (per person year of follow-up)” value in series [5] (ABTC0703 n = 76, hazard rate of death) is on record as 0.403 per person year of follow-up. Moreover, the “Median Overall Survival Months, (95% CI)” value in series [5] (ABTC0703 n = 76, iniparib + RT + TMZ, then iniparib + TMZ maintenance) was 21.6 (16.1-23.7) Months. For the same molecule, the “Comparison with RTOG 0525 (2013)” value in series [5] (extrapolated and not pre-planned analysis) is listed as “improved”. The “Reduction of HR versus Stupp et al 2005” value in series [5] (single arm phase 2, efficacy endpoint met) is given as at least 25%. Also, the “Phase 2 dose” value in series [6] (IV 2×/wk with metronomic TMZ) was 8.6 mg/kg. For the same molecule, the “Phase 2 dose” value in series [6] (IV 2×/wk with standard TMZ) is listed as 8 mg/kg. Moreover, in series [6] (human, in vivo), the “DLT: fatigue (number)” value was found to be 1, the “DLT: hypersensitivity reaction (number)” value was found to be 1, the “DLT: rash (number)” value is recorded as 1 and the “DLT: thromboembolic event (number)” value turned out to be 1. Moreover, in series [6] (human, in vivo), the White counts decreased was 22 (51) No. (% of pts).
